US11058661B2, “Compositions and methods for lowering triglycerides in a subject on concomitant statin therapy and having hsCRP levels of at least about 2 mg/L” (priority 2018, dated 2021)

Experiment: AAMI pilot study: essential fatty acids in plasma and RBC
Type: in vivo, human
Method: Blood samples (10 mL) were collected at Visit 1 (screening) and at Visits 4, 5 and 6. Analysis was performed by MSR Lipid Analysis, Scottish Crop Research Institute, Dundee, UK. The screening sample acted as baseline for the EFA measurements. Lipid was extracted from plasma, serum and RBC suspensions and converted into fatty acid methyl esters which were analyzed by gas chromatography to give fatty acid profiles as micrograms fatty acid per gram of sample (μgFA/g) and normalized area percent. RBC and plasma EFA data were collected at baseline, Day 14, 28 and 42 and summarized by visit for each treatment group. Change from baseline and percent change from baseline were also summarized. ANCOVA comparison of ethyl-EPA dose groups and ethyl-EPA versus placebo was performed.

## CC/C=C\C/C=C\C/C=C\C/C=C\C/C=C\CCCC(=O)OCC [Icosapent Ethyl, ethyl eicosapentaenoate]
RBC
  DHA LS Mean, 1 g versus 4 g: 1.0 µg/g
  DHA LS Mean, 2 g versus 4 g: 1.0 µg/g
  DPAn-3 LS Mean, 1 g versus 4 g: -6.2 µg/g
  DPAn-3 LS Mean, 2 g versus 4 g: -2.5 µg/g
RBC, Day 14, 1 g
  AA Mean (SD) change from Baseline: −8.1 (21.95) μg/g
  DGLA Mean (SD) change from Baseline: −2.7 (3.82) μg/g
  DHA Mean (SD) change from Baseline: −4.6 (9.76) μg/g
  DPAn-3 Mean (SD) change from Baseline: 0.9 (5.03) μg/g
  EPA/AA Mean (SD) change from Baseline: 0.1 (0.04) μg/g
RBC, Day 14, 2 g
  AA Mean (SD) change from Baseline: −3.1 (25.84) μg/g
  DGLA Mean (SD) change from Baseline: −2.6 (3.54) μg/g
  DHA Mean (SD) change from Baseline: −2.0 (9.46) μg/g
  DPAn-3 Mean (SD) change from Baseline: 5.6 (6.28) μg/g
  EPA/AA Mean (SD) change from Baseline: 0.2 (0.04) μg/g
RBC, Day 14, 4 g
  DGLA Mean (SD) change from Baseline: −5.3 (4.10) μg/g
  DHA Mean (SD) change from Baseline: −6.9 (9.13) μg/g
  DPAn-3 Mean (SD) change from Baseline: 5.4 (5.38) μg/g
  EPA/AA Mean (SD) change from Baseline: 0.3 (0.07) μg/g
RBC, Day 28, 1 g
  AA Mean (SD) change from Baseline: −17.0 (20.69) μg/g
  DGLA Mean (SD) change from Baseline: −3.8 (3.31) μg/g
  DHA Mean (SD) change from Baseline: −6.4 (11.57) μg/g
  DPAn-3 Mean (SD) change from Baseline: 3.3 (5.42) μg/g
  EPA/AA Mean (SD) change from Baseline: 0.1 (0.05) μg/g
RBC, Day 28, 2 g
  DGLA Mean (SD) change from Baseline: −4.5 (3.58) μg/g
  DHA Mean (SD) change from Baseline: −6.2 (9.34) μg/g
  DPAn-3 Mean (SD) change from Baseline: 9.4 (6.74) μg/g
  EPA/AA Mean (SD) change from Baseline: 0.02 (0.06) μg/g
RBC, Day 28, 4 g
  DGLA Mean (SD) change from Baseline: −7.1 (4.63) μg/g
  DHA Mean (SD) change from Baseline: −8.7 (11.63) μg/g
  EPA/AA Mean (SD) change from Baseline: 0.4 (0.11) μg/g
RBC, Day 42, 1 g
  DGLA Mean (SD) change from Baseline: −3.5 (4.51) μg/g
  DHA Mean (SD) change from Baseline: −7.0 (12.20) μg/g
  DPAn-3 Mean (SD) change from Baseline: 6.5 (6.19) μg/g
  EPA/AA Mean (SD) change from Baseline: 0.1 (0.06) μg/g
RBC, Day 42, 2 g
  DGLA Mean (SD) change from Baseline: −5.3 (3.65) μg/g
  DHA Mean (SD) change from Baseline: −6.3 (9.42) μg/g
  EPA/AA Mean (SD) change from Baseline: 0.3 (0.06) μg/g
RBC, Day 42, 4 g
  DGLA Mean (SD) change from Baseline: −8.0 (4.98) μg/g
  EPA/AA Mean (SD) change from Baseline: 0.4 (0.14) μg/g
plasma
  DPAn-3 LS Mean, 2 g versus 4 g: -9.5 µg/g
Plasma and RBC, to Day 42, 1, 2 and 4 g groups
  EPA values, change from baseline: increased substantially from baseline
plasma, Day 14, 1 g
  AA Mean (SD) change from Baseline: −9.7 (22.20) μg/g
  DHA Mean (SD) change from Baseline: −6.4 (13.30) μg/g
  DPAn-3 Mean (SD) change from Baseline: 7.5 (5.11) μg/g
  EPA/AA Mean (SD) change from Baseline: 0.3 (0.4) μg/g
plasma, Day 14, 2 g
  DHA Mean (SD) change from Baseline: −5.4 (14.29) μg/g
  EPA/AA Mean (SD) change from Baseline: 0.6 (0.23) μg/g
plasma, Day 14, 4 g
  EPA/AA Mean (SD) change from Baseline: 1.1 (0.28) μg/g
plasma, Day 28, 1 g
  DHA Mean (SD) change from Baseline: −6.6 (15.53) μg/g
  DPAn-3 Mean (SD) change from Baseline: 3.9 (5.62) μg/g
  EPA/AA Mean (SD) change from Baseline: 0.3 (0.20) μg/g
plasma, Day 28, 2 g
  DHA Mean (SD) change from Baseline: −8.1 (15.82) μg/g
  EPA/AA Mean (SD) change from Baseline: 0.8 (0.35) μg/g
plasma, Day 28, 4 g
  EPA/AA Mean (SD) change from Baseline: 1.3 (0.42) μg/g
plasma, Day 42, 1 g
  AA Mean (SD) change from Baseline: −8.7 (31.35) μg/g
  DGLA Mean (SD) change from Baseline: −9.4 (9.41) μg/g
  DHA Mean (SD) change from Baseline: −5.4 (18.17) μg/g
  EPA/AA Mean (SD) change from Baseline: 0.3 (0.24) μg/g
plasma, Day 42, 2 g
  DHA Mean (SD) change from Baseline: −6.0 (16.69) μg/g
  EPA/AA Mean (SD) change from Baseline: 0.7 (0.29) μg/g
plasma, Day 42, 4 g
  DPAn-3 Mean (SD) change from Baseline: 32.0 (16.01) μg/g
  EPA/AA Mean (SD) change from Baseline: 1.3 (0.45) μg/g
